This is an account of results in patent publication US5324747A, “N-substituted anilines, inhibitors of phospholipases A2” (Hoffmann-La Roche Inc., priority 1992, dated 1994).

Each structure is given as a SMILES string.

One test relates to PLA2 Rat Paw Edema. Briefly: Phospholipase A2 Rat Paw Edema. It counts as in vivo, Lewis rats. To be noted: Rattus norvegicus; 2 hr; 30 mg/kg; read-out: % Inhib of PLA2 Rat Paw Edema 2 hr (30 mg/kg). The method, then: Phospholipase A2 Rat Paw Edema
Representation compounds of the invention were tested in rats to determine their ability to inhibit the acute inflammatory response induced by the injection of snake venom phospholipase A2. Test compounds are administered intraperitoneally or orally to groups of seven Lewis rats (≈200 gm) 1 hr prior to phospholipase A2 administration. The test compounds are dissolved in dimethyl sulfoxide for intraperitoneal administration and dissolved or suspended in Labrafil M-1944CS for oral administration. At 0 hr, 5 ug (10 units) of purified phospholipase A2 from Naja naja venom (Sigma Chem. Co.) dissolved in 0.1 mL of pyrogen free saline is injected subplantarly into the right hind paw to elicit the inflammatory response. The volume (in mL) of the right hind paw is measured by immersion of the paw to the level of the lateral malleolus in an aqueous plethysmometer immediately prior to the injection of phospholipase A2 and then at 0.5, 2 and 4 hr after phospholipase A2 injection. The paw edema is calculated by subtracting the zero time reading from the readings taken after injection. The percent change of the edema volume from the vehicle treated control is calculated to determine the activity of the test compound. Statistical analysis of the mean paw edema values of the control versus the treated groups is performed using Student's t-test. Significance of changes from mean value for vehicle-treated animals (*p<0.05, **p<0.01, ***p<0.001, ns/not significant).

The subject of test [1] is Croton Oil Mouse Ear Edema. The test is described as follows: Croton Oil Mouse Ear Edema Test. In kind it is in vivo, CD-1 mice. To be noted: topical, coapplied, 6 hours.
Procedure: Twenty five μl of a 1% croton oil solution [dissolved in a mixture of pyridine/water/diethyl ether at a ratio of 5/20/75 (croton oil vehicle)] are applied to the outer side of the right ear of 3-4 week old made CD-1 mice (8 animals per group). The test compounds are dissolved directly in the 1% croton oil solution at various concentrations and coapplied. Control animals receive 25 μl of croton oil vehicle on the right ear. Biopsy punches are removed at 6 hours from the right ear of the animals using a 6 mm skin trephine (Roboz, Washington, D.C.) and the wet weight of the ear punches is determined. The weight of the biopsy punches is a measure of ear inflammation, primarily edema. The data are expressed as percent inhibition relative to control groups.
A further test addresses T1, HSF-PLA2 (Homo sapiens, UniProt P14555).
T1 construct: extracellular enzyme obtained from human synovial fluid (HSF-PLA2); from tissue; host or cells: pooled human synovial fluid, added at 0.1% (v/v)
T1 sequence (P14555 21-144): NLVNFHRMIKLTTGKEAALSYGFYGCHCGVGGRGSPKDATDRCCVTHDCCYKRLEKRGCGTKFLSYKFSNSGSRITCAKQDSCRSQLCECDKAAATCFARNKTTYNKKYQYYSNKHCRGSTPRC
Briefly: Assay for Inhibition of HSF-PLA2 In Vitro. It counts as biochemical. To be noted: for inhibition at 10 µM / inhibition at 1 µM: read-out: Inhib of HSF-PLA2, % inhibition; for IC50: read-out: Inhib of HSF-PLA2 IC50. Here is the method:
Assay for Inhibition of HSF-PLA2 In Vitro
The PLA2 used in this test is the extracellular enzyme obtained from human synovial fluid (HSF-PLA2).
The optimal conditions which were developed for the assay of HSF-PLA2 inhibitors are summarized as follows. […] The reaction was initiated by the addition of HSF-PLA2 and duplicate samples of the mixture were incubated in 13×100 mm glass tubes with shaking for 30 minutes at 37° C. […] The extraction of lipids from the stopped reaction mixture was conducted by the further additions of […] of chloroform and 1 ml of water with mixing. After centrifuging, the lower chloroform phase was transferred to smaller glass tubes and the solvent was evaporated to dryness with a nitrogen stream. The extracted lipid residue was redissolved in 50 μl of a solution containing carrier oleic acid (0.2 mg/ml) of chloroform-methanol [9 to 1, v/v]). The whole lipid extract was applied to a preactivated (30 minutes at 110° C.) silica gel-impregnated glass fiber thin layer chromatography sheet (ITLC type SG sheet from Gelman Sciences, Inc., Ann Arbor, Mich.) using hexane-acetic acid (100 to 1, v/v) as the developing solvent. This TLC system rapidly (6 minutes) resolved the enzymatically released product, ^14 C-oleic acid, from the unreacted ^14 C-phospholipid substrate. The unsaturated lipids were located on the chromatogram by a brief exposure to iodine vapor. […] A control incubation of substrate in the absence of HSF-PLA2 was performed in each experiment.

Regarding `CCCCCCCCCCOc1cc(C(=O)OC)cc(N(CC(=O)O)CC(=O)O)c1` [Example 69c, N-(carboxymethyl)-N-[(3-methoxycarbonyl)-5-(decyloxy)phenyl]glycine], the inhibition in vivo at 30 mg/kg with PLA2 Rat Paw Edema turned out to be 1%. In addition, in test [1], the “% Inhib of Croton Oil Mouse Ear Edema (1 mg)” value (from here on “% Inhib”) is 78%.
A word on the inhibition: it is the share of the control response that was lost under treatment. With `O=C(O)CCCCCCCCCCOc1cc(OCCCCCCCCCCC(=O)O)cc(N(CC(=O)O)CC(=O)O)c1` [Example 6k, N-(carboxymethyl)-N-[3,5-bis[(11-hydroxy-11-oxoundecyl)oxy]phenyl]glycine], the inhibition at 10 µM on HSF-PLA2 turned out to be 35%. The inhibition in vivo at 30 mg/kg with PLA2 Rat Paw Edema worked out at 0%. Besides, in test [1], the “% Inhib” value was 16%.
Consider `CCCCCCCCCCCCCCCCCCNC(=O)Oc1ccc(N(CC(=O)O)CC(=O)O)cc1OC(=O)NCCCCCCCCCCCCCCCCCC` [Example 119d, N-(carboxymethyl)-N-[3,4-bis[[(octadecylamino)carbonyl]oxy]phenyl]glycine], for which the inhibition at 1 µM at HSF-PLA2 amounted to 19%. Also, the “% Inhib” value in test [1] was 14%.
A word on the IC50: it is the concentration at which inhibition is half-maximal. In the case of `CCCCCCCCCCCCCCCCCCOc1cc(C(=O)OC)cc(N(CC(=O)O)CC(=O)O)c1` [Example 69, N-(Carboxymethyl)-N-[3-(methoxycarbonyl)-5-(octadecyloxy)phenyl]glycine], on HSF-PLA2, the concentration for half-maximal inhibition (IC50) worked out at 100 nM. The inhibition in vivo at 30 mg/kg in the test with PLA2 Rat Paw Edema was 57%. In test [1], the “% Inhib” value was determined as 22%.
For `CCCCCCCCCCCCCCCCCCNC(=O)c1cccc(N(CC(=O)O)CC(=O)O)c1` [Example 42] the same measures were 400 nM, 38% and 0%.
For `O=C(O)CN(CC(=O)O)c1cc(OCCCOc2ccccc2-c2ccccc2)cc(OCCCOc2ccccc2-c2ccccc2)c1` [Example 6l] the same measures were 420 nM, 0% and 30%.
In the case of `CCCCCCCCCCOc1cc(OCCCCCCCCCC)cc(N(CC(=O)OCC(=O)N(CCO)CCO)CC(=O)OCC(=O)N(CCO)CCO)c1` [Example 131], the inhibition in vivo at 30 mg/kg in the test on PLA2 Rat Paw Edema stood at 18%. For the same compound, the “% Inhib” value in test [1] was 47%.
On to `CCCCCCCCCCCCCCNC(=O)Oc1ccc(N(CC(=O)O)CC(=O)O)cc1OC(=O)NCCCCCCCCCCCCCC` [Example 119e, N-(carboxymethyl)-N-[3,4-bis[[(tetradecylamino)carbonyl]oxy]phenyl]glycine], for which the inhibition at 1 µM at HSF-PLA2 worked out at 33%. The “% Inhib” value in test [1] was found to be 0%.
In the case of `CCCCCCCCCCOc1cc(OCCCCCCCCCC)cc(N(CC(=O)O)CC(=O)OC)c1` [Example 31, N-(2-Methoxy-2-oxoethyl)-N-[3,5-bis(decyloxy)phenyl]glycine], the inhibition in vivo at 30 mg/kg in the test on PLA2 Rat Paw Edema amounted to 21%. Also, in test [1], the “% Inhib” value turned out to be 50%.
Consider `CCCCCCCCCCCCCCCCCCOc1cccc(NCC(=O)O)c1` [Example 125, N-[3-(Octadecyloxy)phenyl]glycine], for which the inhibition at 10 µM on HSF-PLA2 amounted to 55%. In addition, in test [1], the “% Inhib” value was 75%.
Consider `CCCCCCCCCCCCCCCCCCOc1cc(N)cc(N(CC(=O)O)CC(=O)O)c1` [Example 94, N-(Carboxymethyl)-N-[3-amino-5-(octadecyloxy)phenyl]glycine], for which the IC50 at HSF-PLA2 stood at 420 nM. The inhibition in vivo at 30 mg/kg in the test with PLA2 Rat Paw Edema was determined as 28%. In addition, the “% Inhib” value in test [1] was 10%.
For the compound `CCCCCCCCCCOc1cc(OCCCCCCCCCC)cc(N(CC(=O)OCOC(C)=O)CC(=O)OCOC(C)=O)c1` [Example 132, N-[2-[(Acetyloxy)methoxy]-2-oxoethyl]-N-[3,5-bis(decyloxy)phenyl]glycine (acetyloxy)methyl ester], the “% Inhib” value in test [1] is recorded as 36%.
In the case of `CCCCCCCCCCCCCC(=O)Oc1ccc(N(CC(=O)O)CC(=O)O)cc1OC(=O)CCCCCCCCCCCCC` [Example 119b, N-(carboxymethyl)-N-[3,4-bis[(1-oxotetradecyl)oxy]phenyl]glycine], at HSF-PLA2, the inhibition at 1 µM came to 80%. Further, in test [1], the “% Inhib” value is 75%.
Turning to `CCCCCCCCCCCCCCCCCCOc1cc(OCC(=O)O)cc(N(CC(=O)O)CC(=O)O)c1` [Example 58c, N-[3-(carboxymethoxy)-5-(octadecyloxy)phenyl]-N-(carboxymethyl)glycine], the IC50 on HSF-PLA2 is 2800 nM. Further, the inhibition in vivo at 30 mg/kg in the test with PLA2 Rat Paw Edema stood at 39%. Also, the “% Inhib” value in test [1] is 0%.
Take `CCCCCCCCCCCCCCCCCCOc1cc(OCCCOc2ccc(C(=O)O)cc2)cc(N(CC(=O)O)CC(=O)O)c1` [Example 58p]: the IC50 at HSF-PLA2 was found to be 600 nM. Moreover, in test [1], the “% Inhib” value is listed as 0%.
As to `CCCCCCCCCCCCCCCc1cccc(OCCCOc2cccc(N(CC(=O)O)CC(=O)O)c2)c1` [Example 36i, N-(carboxymethyl)-N-[3-{3-(3-pentadecylphenoxy)propoxy]phenyl]glycine], at HSF-PLA2, the IC50 worked out at 400 nM. Also, the inhibition in vivo at 30 mg/kg with PLA2 Rat Paw Edema was 7%.
`CCCCCCCCC(O)COc1cc(OCC(O)CCCCCCCC)cc(N(CC(=O)O)CC(=O)O)c1` (racemic) [Example 6h, rac-N-(carboxymethyl)-N-[3,5-bis[[2-hydroxydecyl)oxy]phenyl]glycine]: the IC50 at HSF-PLA2 came to 500 nM. Further, the inhibition in vivo at 30 mg/kg with PLA2 Rat Paw Edema is 5%.
The matching figures for `CCCCOc1cc(OCCCC)cc(N(CC(=O)O)CC(=O)O)c1` [Example 6a, N-[3,5-bis(butoxy)phenyl]-N-(carboxymethyl)glycine]: 2000 nM and 33%.
As to `CCCCCCCCCCCCCCNC(=O)c1cc(C(=O)NCCCCCCCCCCCCCC)cc(N(CC(=O)O)CC(=O)O)c1` [Example 6q, N-(carboxymethyl)-N-[3,5-bis[(tetradecylamino)carbonyl]phenyl]glycine], the IC50 on HSF-PLA2 stood at 300 nM. Also, in the test on PLA2 Rat Paw Edema, the inhibition in vivo at 30 mg/kg amounted to 0%.
For `CCCCCCCCCCCCCCCCCCOc1cc(SC)cc(N(CC(=O)O)CC(=O)O)c1` [Example 166, N-(Carboxymethyl)-N-[3-(methylthio)-5-(octadecyloxy)phenyl]glycine], on HSF-PLA2, the inhibition at 1 µM turned out to be 88%. Moreover, the inhibition in vivo at 30 mg/kg with PLA2 Rat Paw Edema turned out to be 31%.
With `CCCCCCCCCCCCCCCCCCOc1cc(N(CC(=O)O)CC(=O)O)cc([S+](C)[O-])c1` (stereo not drawn) [Example 172, N-(Carboxymethyl)-N-[3-(methylsulfinyl)-5-(octadecyloxy)phenyl]glycine], on HSF-PLA2, the inhibition at 1 µM was 39%. Besides, the inhibition in vivo at 30 mg/kg in the test with PLA2 Rat Paw Edema stood at 43%.
As to `CCCCCCOc1cc(OCCCCCC)cc(N(CC(=O)O)CC(=O)O)c1` [Example 6b, N-(carboxymethyl)-N-[3,5-bis(hexyloxy)phenyl]glycine], on HSF-PLA2, the IC50 was determined as 2100 nM. Moreover, the inhibition in vivo at 30 mg/kg with PLA2 Rat Paw Edema is 25%.
Consider `CCCCCCCCCCCCCCCCCCOc1cc(OCCOCCOCCOCCOC)cc(N(CC(=O)O)CC(=O)O)c1` [Example 156, N-(Carboxymethyl)-N-[3-[2-[2-(2-methoxyethoxy)ethoxy]ethoxy]ethoxy]-5-(octadecyloxy)phenyl glycine], for which, on HSF-PLA2, the inhibition at 1 µM was found to be 100%. In addition, the inhibition in vivo at 30 mg/kg in the test on PLA2 Rat Paw Edema worked out at 29%.
Regarding `O=C(O)CN(CC(=O)O)c1cc(OCCCc2ccccc2)cc(OCCCc2ccccc2)c1` [Example 6g, N-(carboxymethyl)-N-[3,5-bis(3-phenylpropoxy)phenyl]glycine], the IC50 at HSF-PLA2 amounted to 1300 nM. Besides, the inhibition in vivo at 30 mg/kg with PLA2 Rat Paw Edema was determined as 26%.
As for `CCCCCCCCCCCCCCCCCC(=O)Nc1cccc(N(CC(=O)O)CC(=O)O)c1` [Example 46], the inhibition in vivo at 30 mg/kg with PLA2 Rat Paw Edema is 44%. In addition, the “% Inhib” value in test [1] amounted to 35%.
As for `CCCCCCCCCCCCCCCCCCOc1cc(NC(C)=O)cc(N(CC(=O)O)CC(=O)O)c1` [Example 98], on HSF-PLA2, the inhibition at 1 µM was 98%. In addition, in the test with PLA2 Rat Paw Edema, the inhibition in vivo at 30 mg/kg was found to be 51%.
